According to patent publication US11724998B2, “PXR agonists and uses thereof for gut barrier dysfunction treatment and prevention” (Albert Einstein College of Medicine, priority 2017, dated 2023):

Tests used:
[1] = test system: RXR; assay: RXR ligand displacement (radiolabeled 9-cis-retinoic acid); type: binding; conditions: displacement of radiolabeled 9-cis-retinoic acid
Experimental: (§1) FIG. 6A-6E. Activation and inhibition studies with different FKK compounds. (A) PXR activation, LS180 cells (upper), and PXR inhibition, LS180 cells, co-incubation with RIF (lower). (B) AhR activation, AZ-AHR cells (upper), and AhR inhibition, AZ-AHR cells, co-incubation with TCDD (lower). (C) GR activation, AZ-GR cells (upper), and VDR activation, IZ-VDRE cells (lower). (D) TR activation, PZ-GR cells (upper), and AR activation, AIZ-AR cells (lower). (E) Displacement of radiolabeled 9-cis-retinoic acid (RA) by FKK compounds.
(§2) All the synthesized compounds and intermediates were tested for their potential to activate PXR and/or AhR via luciferase assays. The PXR activation assays were performed by co-transfecting full-length expressing human PXR plasmid (91) and p3A4 luciferase reporter (92) in LS180 or Caco-2 cells. AhR activation conducted using stably co-transfected HepG2 reporter cells as previously described (93). […] With the exception of FKK6, there was no significant inhibition of TCDD-induced AhR activation. […] Independent verification of AhR activity of randomly selected compounds—FKK 5, 6 and 9—was performed in a separate laboratory (GHP). Nuclear receptor selectivity was assessed for FKK compounds for GR, ADR, TR and AR using cell-based luciferase assays previously described (93-102). […]

[2] = test system: PXR target genes (CYP3A4, MDR1); conditions: human
[3] = molecular target: T1, AhR (Homo sapiens, UniProt P35869); assay: AhR activation, AZ-AHR (stably co-transfected HepG2) reporter cells; type: cell-based; set-up: endogenous in cells; host or cells: AZ-AHR (HepG2); conditions: to a much lesser extent than FKK 2 and 9; FIG. 6B
T1 sequence (P35869 11-848): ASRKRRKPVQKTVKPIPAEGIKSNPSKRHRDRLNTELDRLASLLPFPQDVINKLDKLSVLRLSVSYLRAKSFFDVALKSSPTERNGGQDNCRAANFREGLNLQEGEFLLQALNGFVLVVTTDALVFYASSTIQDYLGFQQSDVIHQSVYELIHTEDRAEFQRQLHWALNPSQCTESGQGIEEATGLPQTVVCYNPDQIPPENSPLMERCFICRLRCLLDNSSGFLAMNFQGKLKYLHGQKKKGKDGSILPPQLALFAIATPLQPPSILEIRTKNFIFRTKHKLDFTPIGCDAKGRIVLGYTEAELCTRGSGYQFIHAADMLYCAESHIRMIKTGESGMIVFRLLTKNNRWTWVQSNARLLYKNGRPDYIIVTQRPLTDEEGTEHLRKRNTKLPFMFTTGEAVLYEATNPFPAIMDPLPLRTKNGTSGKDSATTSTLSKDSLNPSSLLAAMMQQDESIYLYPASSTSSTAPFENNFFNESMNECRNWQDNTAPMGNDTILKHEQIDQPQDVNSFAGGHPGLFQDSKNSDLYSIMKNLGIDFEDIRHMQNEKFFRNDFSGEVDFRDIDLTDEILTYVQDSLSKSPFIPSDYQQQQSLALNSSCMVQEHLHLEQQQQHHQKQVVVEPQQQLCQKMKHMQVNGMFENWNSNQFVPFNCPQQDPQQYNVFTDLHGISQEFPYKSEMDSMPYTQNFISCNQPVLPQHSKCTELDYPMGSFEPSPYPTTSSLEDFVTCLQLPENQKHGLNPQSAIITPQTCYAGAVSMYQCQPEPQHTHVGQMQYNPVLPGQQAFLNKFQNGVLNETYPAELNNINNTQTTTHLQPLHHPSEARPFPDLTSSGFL
Experimental: as §1
All the synthesized compounds and intermediates were tested for their potential to activate PXR and/or AhR via luciferase assays. The PXR activation assays were performed by co-transfecting full-length expressing human PXR plasmid (91) and p3A4 luciferase reporter (92) in LS180 or Caco-2 cells. AhR activation conducted using stably co-transfected HepG2 reporter cells as previously described (93). […] With the exception of FKK6, there was no significant inhibition of TCDD-induced AhR activation. […] Independent verification of AhR activity of randomly selected compounds—FKK 5, 6 and 9—was performed in a separate laboratory (GHP). Nuclear receptor selectivity was assessed for FKK compounds for GR, ADR, TR and AR using cell-based luciferase assays previously described (93-102). There was no observed biologically significant (>2-fold) induction of nuclear receptor activity (FIG. 6C). RXR ligand displacement is only significant for FKK1 and FKK8 (FIG. 6D).

[4] = molecular target: T2, PXR (Homo sapiens, UniProt O75469); assay: PXR inhibition, LS180 cells, co-incubation with RIF; type: cell-based; set-up: co-transfecting full-length expressing human PXR plasmid (91) and p3A4 luciferase reporter (92) in LS180 or Caco-2 cells; expressed in transfected cells; host or cells: LS180; conditions: FIG. 6A
T2 sequence (O75469 1-434): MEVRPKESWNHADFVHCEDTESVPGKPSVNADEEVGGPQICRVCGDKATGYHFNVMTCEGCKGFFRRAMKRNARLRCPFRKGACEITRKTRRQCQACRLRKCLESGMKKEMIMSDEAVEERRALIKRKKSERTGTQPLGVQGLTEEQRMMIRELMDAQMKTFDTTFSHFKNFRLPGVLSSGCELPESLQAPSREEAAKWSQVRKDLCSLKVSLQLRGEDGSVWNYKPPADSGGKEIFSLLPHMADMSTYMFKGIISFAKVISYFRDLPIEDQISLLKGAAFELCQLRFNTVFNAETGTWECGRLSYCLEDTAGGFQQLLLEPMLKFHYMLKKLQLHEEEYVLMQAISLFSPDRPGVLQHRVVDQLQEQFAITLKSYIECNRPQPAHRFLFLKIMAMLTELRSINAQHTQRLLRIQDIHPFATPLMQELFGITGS
Experimental: as §1, §2

Question: O=S(=O)(c1ccccc1)n1c(C(O)Cc2cc3ccccc3[nH]2)cc2ccccc21 (stereo not shown) [FKK8] was tested. Which RXR ligand displacement [1] did it give?
Answer: significant

Question: And the “CYP3A4 mRNA induction” value [2]?
Answer: 1.5 fold

Question: What about the AhR activation profile [3] of the same molecule?
Answer: variable degrees of dose-dependent AhR activation

Question: What about the “rifampicin-dependent PXR antagonism (inhibition)” value [4] of the same molecule?
Answer: rifampicin-dependent PXR antagonism (inhibition)
